From US5635525A, “Benzimidazole derivatives as angiotensin II receptor antagonists, pharmacticals, and treatment of hypertension therewith” (Hoechst Aktiengesellschaft, priority 1991, dated 1997)

Biological target: angiotensin II receptor
Assay: displacement of 125I- or 3H-angiotensin II from receptor preparations from various organs (liver, lung, adrenal gland, brain etc.)
Settings: "according to the abovementioned process"; which of the two binding methods is not stated
Protocol: Bound and free radioligand are then separated by filtration through micro glass fiber filters (GF51, Schleicher & Schull) on a cell collector (SKATRON).
By measurement of the receptor-bund radioactivity on the filters by means of a beta spectrometer or gamma spectrometer, the degree of displacement of the radioligand from the receptor by the test compounds is determined.

Row | Compound | IC50 [nM]
1 | 2-n-Butyl-3-[(2'-allylaminocarbonylaminosulfonylbiphenyl-4-yl)-methyl]-3H-imidazo-[4,5-b]/[5,4-b]pyridine [Example 27] | 1.1
2 | CCCCc1nc2cccc(C(=O)O)c2n1Cc1ccn2c(C(=O)O)c(-c3ccccc3)nc2c1 [Example 2, 2-n-Butyl-1-[(3-carboxy-2-phenylimidazo[1,2-a]pyridin-7-yl)methyl]-1H-benzimidazole-7-carboxylic acid] | 65
3 | CCNC(=O)NS(=O)(=O)c1ccccc1-c1ccc(Cn2c(CC)nc3c(C)ccnc32)cc1 [Example 31, 2-Ethyl-3-[(2'-ethylaminocarbonylaminosulfonylbiphenyl-4-yl)methyl]-7-methyl-imidazo[4,5-b]pyridine] | 0.48
4 | C=CCOC(=O)N(C(=O)OCC=C)S(=O)(=O)c1ccccc1-c1ccc(Cn2c(CC)nc3c(C)cc(C)nc32)cc1 [Example 15] | 0.8
5 | CCCCc1nc2cccc(C(=O)O)c2n1Cc1ccc2c(Cl)c(C(=O)O)sc2c1 [Example 1, 2-n-Butyl-1-[(2-carboxy-3-chlorobenzo[b]thiophen-6-yl)-methyl]-1H-benzimidazole-7-carboxylic acid] | 78
6 | CCCCc1nc2cccc(C(=O)O)c2n1Cc1ccn2c(C(=O)O)c(-c3ccccc3)nc2n1 [Example 3, 2-n-Butyl-1-[(3-carboxy-2-phenylimidazo[1,2-a]pyrimidin-7-yl)methyl]-1H-benzimidazole-7-carboxylic acid] | 149
7 | CCCCc1nc2cccc(C(=O)O)c2n1Cc1ccc(-c2ccccc2S(=O)(=O)NC(=O)OCC)cc1 [Example 19, 2-n-Butyl-1-[(2'-ethoxycarbonylaminosulfonylbiphenyl-4-yl)methyl]-1H-benzimidazole-7-carboxylic acid] | 0.74
8 | CCCNC(=O)NS(=O)(=O)c1ccccc1-c1ccc(Cn2c(CC)nc3c(C)cc(C)nc32)cc1 [Example 51] | 1.8
